In general, IC50 refers to the point on the concentration scale where inhibition reaches its midpoint.

SMILES strings stand for the structures.

This experiment deals with SHP2^E76A protein (Homo sapiens (Human), UniProt Q06124, E76A). Briefly: SHP2 enzyme activity inhibition experiment. The experiment is classed as biochemical. Particulars: SHP2 enzyme activity, Tables 1.1 and 1.2; read-out: IC50. As for the experimental part: Compound powders were dissolved in DMSO to prepare mother liquor.
During the experiment, the stock solutions of the compounds were subjected to 3-fold gradient dilution with DMSO, and 10 different test concentrations of each compound were set. […] The protein used was the activated protein SHP^2E76A with amino acid mutation at position 76 of the protein, and the substrate used was DiFMUP (Invitrogen, E12020). […] 50 µL of enzyme solution was added to the detection wells, followed by 50 µL of substrate. […] GraphPad Prism 5 was used for nonlinear regression analysis, and the curve of enzyme activity versus compound concentration was fitted by the equation Y=Bottom+(Top-Bottom)/(1+10^((Log IC50−X)*HillSlope)) to calculate the IC50 value of each compound.

SHP2^E76A protein, sequence (Q06124 whole entry E76A): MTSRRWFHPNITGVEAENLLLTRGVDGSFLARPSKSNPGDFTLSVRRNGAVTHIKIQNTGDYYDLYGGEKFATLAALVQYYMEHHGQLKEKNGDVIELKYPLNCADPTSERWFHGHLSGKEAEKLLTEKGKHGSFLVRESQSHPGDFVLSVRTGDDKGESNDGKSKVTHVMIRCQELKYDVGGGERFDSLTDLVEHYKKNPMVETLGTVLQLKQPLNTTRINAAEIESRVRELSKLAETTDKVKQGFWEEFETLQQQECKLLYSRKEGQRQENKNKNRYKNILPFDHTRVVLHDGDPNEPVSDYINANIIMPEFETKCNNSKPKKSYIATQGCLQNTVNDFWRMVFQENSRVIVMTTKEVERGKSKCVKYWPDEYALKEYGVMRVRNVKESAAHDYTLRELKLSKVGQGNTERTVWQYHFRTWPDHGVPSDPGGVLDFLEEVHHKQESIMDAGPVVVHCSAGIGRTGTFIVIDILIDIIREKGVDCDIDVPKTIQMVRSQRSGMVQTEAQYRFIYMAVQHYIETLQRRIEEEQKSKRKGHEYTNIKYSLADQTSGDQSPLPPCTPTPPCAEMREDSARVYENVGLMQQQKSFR

`Nc1cc(Sc2cnc(N3CCC4(CCC[C@H]4N)CC3)n3cnnc23)c(Cl)cn1` [(R)-8-(8-((2-amino-5-chloropyridin-4-yl)thio)-[1,2,4]triazolo[4,3-c]pyrimidin-5-yl)-8-azaspiro[4.5]decan-1-amine]: the IC50 lay in the range of 1000 to 10000 nM. For `Nc1ccc(Sc2cnc(N3CCC4(CCC[C@H]4N)CC3)n3cnnc23)cc1` [(R)-8-(8-((4-aminophenyl)thio)-[1,2,4]triazolo[4,3-c]pyrimidin-5-yl)-8-azaspiro[4.5]decan-1-amine] the value was 1000 to 10000 nM; for `Cc1ncccc1Sc1cnc(N2CCC3(CCC[C@H]3N)CC2)n2ccnc12` [(R)-8-(8-((2-methylpyridin-3-yl)thio)imidazo[1,2-c]pyrimidin-5-yl)-8-azaspiro[4.5]decan-1-amine], less than 100 nM; for `CN(C)C(=O)C(=O)Nc1cccc(Sc2cnc(N3CCC4(CCC[C@H]4N)CC3)n3ccnc23)c1Cl`, 100 to 1000 nM.

As to `NCC1CCN(c2ncc(Sc3cccc(Cl)c3Cl)c3nccn23)CC1` [(1-(8-((2,3-dichlorophenyl)thio)imidazo[1,2-c]pyrimidin-5-yl)piperidin-4-yl)methanamine], the IC50 fell in the range of 100 to 1000 nM. Consider `N[C@@H]1CCCC12CCN(c1ncc(Sc3ccc(Cl)cc3)c3nncn13)CC2` [(R)-8-(8-((4-chlorophenyl)thio)-[1,2,4]triazolo[4,3-c]pyrimidin-5-yl)-8-azaspiro[4.5]decan-1-amine], for which the IC50 lay within 1000 to 10000 nM. As for `CC1(N)CCN(c2ncc(Sc3cccc(Cl)c3Cl)c3ncnn23)CC1` [1-(8-((2,3-dichlorophenyl)thio)-[1,2,4]triazolo[1,5-c]pyrimidin-5-yl)-4-methylpiperidin-4-amine], the IC50 fell in the range of 1000 to 10000 nM. On to `C[C@H]1OCC2(CCN(c3ncc(Sc4cccc(Cl)c4Cl)c4ncnn34)CC2)[C@H]1N` [(3R,4R)-8-(8-((2,3-dichlorophenyl)thio)-[1,2,4]triazolo[1,5-c]pyrimidin-5-yl)-3-methyl-2-oxa-8-azaspiro[4.5]decan-4-amine], for which the IC50 is 1000 to 10000 nM. Regarding `NC1CCN(c2ncc(Sc3cccc(Cl)c3Cl)c3nncn23)CC1` [1-(8-((2,3-dichlorophenyl)thio)-[1,2,4]triazolo[4,3-c]pyrimidin-5-yl)piperidin-4-amine], the IC50 is 1000 to 10000 nM. The value for `N[C@H]1CCCC12CCN(c1ncc(Sc3cccc(Cl)c3Cl)c3nncn13)CC2` [(S)-8-(8-((2,3-dichlorophenyl)thio)-[1,2,4]triazolo[4,3-c]pyrimidin-5-yl)-8-azaspiro[4.5]decan-1-amine] was 1000 to 10000 nM. As to `NC1CCN(c2ncc(Sc3cccc(Cl)c3Cl)c3nccn23)CC1` [1-(8-((2,3-dichlorophenyl)thio)imidazo[1,2-c]pyrimidin-5-yl)piperidin-4-amine], the IC50 was 100 to 1000 nM.

On to `NC1CC2(CCN(c3ncc(Sc4cccc(Cl)c4Cl)c4nncn34)CC2)C1` [7-(8-((2,3-dichlorophenyl)thio)-[1,2,4]triazolo[4,3-c]pyrimidin-5-yl)-7-azaspiro[3.5]nonan-2-amine], for which the IC50 was 1000 to 10000 nM. Regarding `Cc1nccc(Sc2cnc(N3CCC4(CC3)COC[C@H]4N)n3cnnc23)c1Cl`, the IC50 is 100 to 1000 nM. Regarding `N[C@@H]1CCCC12CCN(c1ncc(Sc3c(Cl)cccc3Cl)c3nncn13)CC2` [(R)-8-(8-((2,6-dichlorophenyl)thio)-[1,2,4]triazolo[4,3-c]pyrimidin-5-yl)-8-azaspiro[4.5]decan-1-amine], the IC50 is 1000 to 10000 nM. In the case of `CC1(N)CCN(c2ncc(Sc3ccnc(N)c3Cl)c3nccn23)CC1` [4-((5-(4-amino-4-methylpiperidin-1-yl)imidazo[1,2-c]pyrimidin-8-yl)thio)-3-chloropyridin-2-amine], the IC50 lay in the range of 100 to 1000 nM.

As for `NC1CC2(CCN(c3ncc(Sc4cccc(Cl)c4Cl)c4nccn34)CC2)C1` [7-(8-((2,3-dichlorophenyl)thio)imidazo[1,2-c]pyrimidin-5-yl)-7-azaspiro[3.5]nonan-2-amine], the IC50 lay in the range of 100 to 1000 nM.

On to `N[C@@H]1CCCC12CCN(c1ncc(Sc3ccnc4ccccc34)c3nncn13)CC2` [(R)-8-(8-(quinolin-4-ylthio)-[1,2,4]triazolo[4,3-c]pyrimidin-5-yl)-8-azaspiro[4.5]decan-1-amine], for which the IC50 is less than 100 nM. As to `CC(=O)Nc1ccc(Sc2cnc(N3CCC4(CCC[C@H]4N)CC3)n3cnnc23)cc1` [(R)-N-(4-((5-(1-amino-8-azaspiro[4.5]decan-8-yl)-[1,2,4]triazolo[4,3-c]pyrimidin-8-yl)thio)phenyl)acetamide], the half-maximal inhibitory concentration (IC50) is 1000 to 10000 nM.

Consider `CC(C)c1ccccc1Sc1cnc(N2CCC3(CCC[C@H]3N)CC2)n2ccnc12` [(R)-8-(8-((2-isopropylphenyl)thio)imidazo[1,2-c]pyrimidin-5-yl)-8-azaspiro[4.5]decan-1-amine], for which the IC50 was in the range of 100 to 1000 nM. As for `Nc1ccc(Sc2cnc(N3CCC4(CCC[C@H]4N)CC3)n3ccnc23)c(Cl)n1` [(R)-8-(8-((6-amino-2-chloropyridin-3-yl)thio)imidazo[1,2-c]pyrimidin-5-yl)-8-azaspiro[4.5]decan-1-amine], the IC50 is less than 100 nM.

`NCCC1CCN(c2ncc(Sc3cccc(Cl)c3Cl)c3nncn23)CC1` [2-(1-(8-((2,3-dichlorophenyl)thio)-[1,2,4]triazolo[4,3-c]pyrimidin-5-yl)piperidin-4-yl)ethan-1-amine]: the IC50 lay within 1000 to 10000 nM. `C[C@@H]1OCC2(CCN(c3ncc(Sc4cc(N)ncc4Cl)c4nccn34)CC2)[C@@H]1N`: the IC50 was less than 100 nM. Take `N[C@@H]1CCCC12CCN(c1ncc(Sc3ccc(Cl)cc3Cl)c3nccn13)CC2` [(R)-8-(8-((2,4-dichlorophenyl)thio)imidazo[1,2-c]pyrimidin-5-yl)-8-azaspiro[4.5]decan-1-amine]: the IC50 was in the range of 100 to 1000 nM. Take `COC(=O)CCSc1cnc(N2CCC3(CCC[C@H]3N)CC2)n2cnnc12` [Methyl (R)-3-((5-(1-amino-8-azaspiro[4.5]decan-8-yl)-[1,2,4]triazolo[4,3-c]pyrimidin-8-yl)thio)propionate]: the IC50 is 1000 to 10000 nM. For the molecule `N[C@@H]1CCC2CN(c3ncc(Sc4cccc(Cl)c4Cl)c4nncn34)CC21` (stereo partly drawn) [(4R)-2-(8-((2,3-dichlorophenyl)thio)-[1,2,4]triazolo[4,3-c]pyrimidin-5-yl)octahydrocyclopenta[c]pyrrol-4-amine], the IC50 is 1000 to 10000 nM. The value for `COc1ccccc1Sc1cnc(N2CCC3(CCC[C@H]3N)CC2)n2ncnc12` [(R)-8-(8-((2-methoxyphenyl)thio)-[1,2,4]triazolo[1,5-c]pyrimidin-5-yl)-8-azaspiro[4.5]decan-1-amine] was 100 to 1000 nM; that for `NCC1(c2ccccc2)CCN(c2ncc(Sc3cccc(Cl)c3Cl)c3nccn23)CC1` [(1-(8-((2,3-dichlorophenyl)thio)imidazo[1,2-c]pyrimidin-5-yl)-4-phenylpiperidin-4-yl)methanamine] was 100 to 1000 nM; that for `N[C@@H]1CCCC12CCN(c1ncc(Sc3ccc4c(c3)CCO4)c3nccn13)CC2` [(R)-8-(8-((2,3-dihydrobenzofuran-5-yl)thio)imidazo[1,2-c]pyrimidin-5-yl)-8-azaspiro[4.5]decan-1-amine] was 100 to 1000 nM. Consider `N[C@@H]1CCCC12CCN(c1ncc(Sc3ccccn3)c3nncn13)CC2` [(R)-8-(8-(pyridin-2-ylthio)-[1,2,4]triazolo[4,3-c]pyrimidin-5-yl)-8-azaspiro[4.5]decan-1-amine], for which the IC50 lay in the range of 1000 to 10000 nM. As for `N[C@@H]1CCCC12CCN(c1ncc(Sc3cccc4c3C(=O)C(=O)N4)c3nccn13)CC2`, the IC50 was 100 to 1000 nM.

With `Nc1ccc(Sc2cnc(N3CCC4(CCC[C@H]4N)CC3)n3ncnc23)c(Cl)n1` [(R)-8-(8-((6-amino-2-chloropyridin-3-yl)thio)-[1,2,4]triazolo[1,5-c]pyrimidin-5-yl)-8-azaspiro[4.5]decan-1-amine], the IC50 fell in the range of 1000 to 10000 nM. On to `Cc1nccc(Sc2cnc(N3CCC4(CC3)COC[C@H]4N)n3ncnc23)c1Cl` [(S)-8-(8-((3-chloro-2-methylpyridin-4-yl)thio)-[1,2,4]triazolo[1,5-c]pyrimidin-5-yl)-2-oxa-8-azaspiro[4.5]decan-4-amine], for which the IC50 fell in the range of 1000 to 10000 nM. Consider `N[C@@H]1CCCC12CCN(c1ncc(-c3cccc(Cl)c3Cl)c3nncn13)CC2` [(R)-8-(8-(2,3-dichlorophenyl)-[1,2,4]triazolo[4,3-c]pyrimidin-5-yl)-8-azaspiro[4.5]decan-1-amine], for which the IC50 is 1000 to 10000 nM. The value for `N[C@@H]1CCCC12CCN(c1ncc(Sc3ccccc3Cl)c3nccn13)CC2` [(R)-8-(8-((2-chlorophenyl)thio)imidazo[1,2-c]pyrimidin-5-yl)-8-azaspiro[4.5]decan-1-amine] was less than 100 nM; that for `Nc1ccc(Sc2cnc(N3CCC4(CCC[C@H]4N)CC3)n3ncnc23)cc1` was 1000 to 10000 nM. With `N[C@@H]1CCCC12CCN(c1ncc(Sc3cccnc3)c3ncnn13)CC2` [(R)-8-(8-(pyridin-3-ylthio)-[1,2,4]triazolo[1,5-c]pyrimidin-5-yl)-8-azaspiro[4.5]decan-1-amine], the IC50 lay in the range of 1000 to 10000 nM. The value for `Cc1ncccc1Sc1cnc(N2CCC3(CCC[C@H]3N)CC2)n2ncnc12` was 1000 to 10000 nM. For `C[C@H]1OCC2(CCN(c3ncc(Sc4cccc(Cl)c4Cl)c4ncnn34)CC2)[C@@H]1N` [(3R,4S)-8-(8-((2,3-dichlorophenyl)thio)-[1,2,4]triazolo[1,5-c]pyrimidin-5-yl)-3-methyl-2-oxa-8-azaspiro[4.5]decan-4-amine], the half-inhibitory concentration (IC50) is 100 to 1000 nM. Take `Cc1nccc(Sc2cnc(N3CCC4(CC3)CO[C@H](C)[C@H]4N)n3cnnc23)c1Cl` [(3R,4S)-8-(8-((3-chloro-2-methylpyridin-4-yl)thio)-[1,2,4]triazolo[4,3-c]pyrimidin-5-yl)-3-methyl-2-oxa-8-azaspiro[4.5]decan-4-amine]: the IC50 is less than 100 nM.
